The experiment deals with T1, human wild-type (WT)-pendrin (Homo sapiens, UniProt O43511).
T1 construct: expressed in transfected cells
T1 sequence (O43511 1-780): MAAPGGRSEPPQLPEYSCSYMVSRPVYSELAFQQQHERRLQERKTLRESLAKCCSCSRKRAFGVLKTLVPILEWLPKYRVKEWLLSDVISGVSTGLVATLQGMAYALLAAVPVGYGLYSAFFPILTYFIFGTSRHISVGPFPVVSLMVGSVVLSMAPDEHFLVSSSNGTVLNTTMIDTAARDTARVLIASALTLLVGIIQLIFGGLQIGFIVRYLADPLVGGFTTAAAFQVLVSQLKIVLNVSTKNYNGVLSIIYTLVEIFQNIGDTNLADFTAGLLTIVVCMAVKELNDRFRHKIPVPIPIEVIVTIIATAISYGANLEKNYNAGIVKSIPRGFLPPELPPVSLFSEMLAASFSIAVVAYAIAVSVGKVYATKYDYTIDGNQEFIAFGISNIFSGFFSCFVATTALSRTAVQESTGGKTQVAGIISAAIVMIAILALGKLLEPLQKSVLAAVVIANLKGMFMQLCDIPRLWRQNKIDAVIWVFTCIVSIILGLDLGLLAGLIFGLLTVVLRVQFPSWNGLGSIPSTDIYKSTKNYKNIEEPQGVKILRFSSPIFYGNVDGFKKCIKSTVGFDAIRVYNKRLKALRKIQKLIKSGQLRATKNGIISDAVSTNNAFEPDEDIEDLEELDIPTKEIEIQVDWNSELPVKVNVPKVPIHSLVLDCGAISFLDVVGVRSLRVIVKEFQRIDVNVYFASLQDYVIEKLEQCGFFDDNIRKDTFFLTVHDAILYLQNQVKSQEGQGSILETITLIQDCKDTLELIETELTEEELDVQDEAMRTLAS
Description: Pendrin Cl−/I− exchange inhibitory activity, YFP fluorescence in CHO-K1 cells. Type of experiment: cell-based. To be noted: CHO-K1; for inhibition at 1 µM: compound concentration 1 μM; for inhibition at 3 µM: compound concentration 3 μM; for inhibition at 10 µM: compound concentration 10 μM; for inhibition at 30 µM: compound concentration 30 μM; for inhibition at 100 µM: compound concentration 100 μM. How it is done: Chinese hamster ovary (CHO)-K1 cells were cultured in DMEM medium containing 10% fetal bovine serum (FBS), 100 units/ml of penicillin and 100 μg/ml streptomycin. CHO-K1 cells were stably transfected with pcDNA3.1 encoding the halide sensor YFP-H148Q/I152L/F46L and human wild-type (WT)-pendrin.
(§1) CHO-K1 cells expressing human WT pendrin and YFP-F46L/H148Q/I152L were plated in 96-well microplates at a density of 2×10^4 cells per well, and cultured for 48 hours. Each well of the cell cultured 96-well plate was washed 2 times with 200 μL of PBS, and filled with 50 μL of HEPES buffered solution (140 mM NaCl, 5 mM KCl, 1 mM MgCl2, 1 mM CaCl2), 10 mM glucose and 10 mM HEPES (pH 7.4)). Test compounds (1 μL) were added to a final concentration of 1, 3, 10, 30 and 100 μM. After culturing at 37° C. for 10 minutes, the 96-well plate was located on the FLUOstar Omega Microplate Reader (BMG Labtech, Ortenberg, Germany) for a fluorescence assay. Fluorescence was recorded continuously (400 ms per point) for 1 second (baseline), whereby each well was assayed individually for pendrin-mediated I-influx. Then 50 μL of Na-substituted HEPES buffered solution (replacing NaCl with NaI) was added using a liquid injector at 1 second, and YFP fluorescence was recorded for 5 seconds. The initial iodide influx rate was determined from the initial slope of fluorescence by nonlinear regression, after the injection of iodide.
as §1, with “Chinese hamster ovary (CHO)-K1 cells were cultured in DMEM medium containing 10% fetal bovine serum (FBS), 100 units/ml of penicillin and 100 μg/ml streptomycin. CHO-K1 cells were stably transfected with pcDNA3.1 encoding the halide sensor YFP-H148Q/I152L/F46L and human wild-type (WT)-pendrin. 3-2: Assay of Cl^−/I^− exchange activity CHO-K1” for “CHO-K1”, “50” for “1, 3, 10, 30 and 100”, “Then,” for “Then”, “NaI-substituted” for “Na-substituted”

As to `Cc1ccc2[nH]c(C(=O)O)c(CC(=O)N3CCN(c4ccc(C(C)(C)C)cc4)CC3)c2c1` [YPI-A4944, 3-(2-(4-(4-(Tert-butyl)phenyl)piperazin-1-yl)-2-oxoethyl)-5-methyl-1H-indole-2-carboxylic acid], the inhibition at 1 µM was less than 20%, the inhibition at 3 µM was less than 20%, at 10 µM the inhibition was 45.4% and the inhibition at 30 µM worked out at 76.2%. For the same molecule, at 100 µM the inhibition was 77.3%.

Consider `Cc1ccc(N2CCN(C(=O)Cc3c(C(=O)O)[nH]c4ccc(Cl)cc34)CC2)cc1` [YPI-A4849, 5-Chloro-3-(2-oxo-2-(4-(p-tolyl)piperazin-1-yl)ethyl)-1H-indole-2-carboxylic acid], for which the inhibition at 1 µM was less than 20%, the inhibition at 3 µM was less than 20%, the inhibition at 10 µM came out at 36.8% and the inhibition at 30 µM amounted to 90.9%. In addition, the inhibition at 100 µM came to 92.3%.

For the molecule `Cc1cccc(C)c1N1CCN(C(=O)Cc2c(C(=O)O)[nH]c3ccc(F)cc23)CC1` [YPI-A4964, 3-(2-(4-(2,6-Dimethylphenyl)piperazin-1-yl)-2-oxoethyl)-5-fluoro-1H-indole-2-carboxylic acid], the inhibition at 1 µM is less than 20%, the inhibition at 3 µM is less than 20%, the inhibition at 10 µM was found to be 51.4% and testing at 30 µM gave an inhibition of 88.9%.

With `O=C(O)c1[nH]c2ccc(Cl)cc2c1CC(=O)N1CCN(c2cc(Cl)c(Cl)c(Cl)c2)CC1` [YPI-A4916, 5-Chloro-3-(2-oxo-2-(4-(3,4,5-trichlorophenyl)piperazin-1-yl)ethyl)-1H-indole-2-carboxylic acid], the inhibition at 1 µM was less than 20%, the inhibition at 3 µM amounted to 45.7%, the inhibition at 10 µM stood at 82.6% and the inhibition at 30 µM is 90.9%. Moreover, the inhibition at 100 µM amounted to 91.4%.

For the molecule `O=C(O)c1[nH]c2ccc(Cl)cc2c1CC(=O)N1CCN(c2ccc(F)cc2F)CC1` [YPI-A4915, 5-Chloro-3-(2-(4-(2,4-difluorophenyl)piperazin-1-yl)-2-oxoethyl)-1H-indole-2-carboxylic acid], the inhibition at 1 µM is less than 20%, the inhibition at 3 µM is less than 20%, the inhibition at 10 µM was less than 20% and testing at 30 µM gave an inhibition of 65.2%. Besides, at 100 µM the inhibition was 93.3%.

`Cc1ccc2[nH]c(C(=O)O)c(CC(=O)N3CCN(c4c(C)cccc4C)CC3)c2c1` [YPI-A4946, 3-(2-(4-(2,6-Dimethylphenyl)piperazin-1-yl)-2-oxoethyl)-5-methyl-1H-indole-2-carboxylic acid] yielded an inhibition at 1 µM of 22.4%, an inhibition at 3 µM of 56.9%, an inhibition at 10 µM of 82.3% and an inhibition at 30 µM of 94.5%. The same molecule showed an inhibition at 100 µM of 95.6%.

On to `Cc1cc(C)c2[nH]c(C(=O)O)c(CC(=O)N3CCN(c4ccc(C(C)(C)C)cc4)CC3)c2c1` [YPI-A4945], for which the inhibition at 1 µM was less than 20%, the inhibition at 3 µM was less than 20%, the inhibition at 10 µM was less than 20% and the inhibition at 30 µM was 38.5%. The same molecule registered an inhibition at 100 µM of 38.6%.

For `Cc1cccc(N2CCN(C(=O)Cc3c(C(=O)O)[nH]c4ccc(Cl)cc34)CC2)c1` [YPI-A4848, 5-Chloro-3-(2-oxo-2-(4-(m-tolyl)piperazin-1-yl)ethyl)-1H-indole-2-carboxylic acid], the inhibition at 1 µM was less than 20%, the inhibition at 3 µM is less than 20%, the inhibition at 10 µM is less than 20% and testing at 30 µM gave an inhibition of 58.9%. Besides, the inhibition at 100 µM was 90.5%.

Molecule `Cc1cccc(Cl)c1N1CCN(C(=O)Cc2c(C(=O)O)[nH]c3ccc(Cl)cc23)CC1` [YPI-A4880, 5-Chloro-3-(2-(4-(2-chloro-6-methylphenyl)piperazin-1-yl)-2-oxoethyl)-1H-indole-2-carboxylic acid] had an inhibition at 1 µM of 42.8%, an inhibition at 3 µM of 75.2%, an inhibition at 10 µM of 97.6% and an inhibition at 30 µM of 98.1%. The molecule further came in with an inhibition at 100 µM of 98.4%.

For `CC1CN(C(=O)Cc2c(C(=O)O)[nH]c3ccc(Cl)cc23)CCN1c1ccccc1` (stereo not shown) [YPI-A4883, 5-Chloro-3-(2-(3-methyl-4-phenylpiperazin-1-yl)-2-oxoethyl)-1H-indole-2-carboxylic acid], the inhibition at 1 µM is less than 20%, the inhibition at 3 µM is less than 20%, the inhibition at 10 µM is less than 20% and the inhibition at 30 µM was less than 20%. Besides, the inhibition at 100 µM was less than 20%.

`O=C(O)c1ccc(N2CCN(C(=O)Cc3c(C(=O)O)[nH]c4ccc(Cl)cc34)CC2)cc1` [YPI-A4919, 3-(2-(4-(4-Carboxyphenyl)piperazin-1-yl)-2-oxoethyl)-5-chloro-1H-indole-2-carboxylic acid] yielded an inhibition at 1 µM of less than 20%, an inhibition at 3 µM of less than 20%, an inhibition at 10 µM of less than 20% and an inhibition at 30 µM of less than 20%. Besides, the inhibition at 100 µM was less than 20%.

Molecule `O=C(O)c1[nH]c2ccc(Cl)cc2c1CC(=O)N1CCN(c2ccc(F)cc2Cl)CC1` [YPI-A4885, 5-Chloro-3-(2-(4-(2-chloro-4-fluorophenyl)piperazin-1-yl)-2-oxoethyl)-1H-indole-2-carboxylic acid] registered an inhibition at 1 µM of less than 20%, an inhibition at 3 µM of less than 20%, an inhibition at 10 µM of 69.1% and an inhibition at 30 µM of 83.7%. Further, the inhibition at 100 µM came to 84.2%.

For `O=C(O)c1[nH]c2ccc(Cl)cc2c1CC(=O)N1CCN(c2ccccc2F)CC1` [YPI-A4917, 5-Chloro-3-(2-(4-(2-fluorophenyl)piperazin-1-yl)-2-oxoethyl)-1H-indole-2-carboxylic acid], the inhibition at 1 µM was less than 20%, the inhibition at 3 µM was less than 20%, the inhibition at 10 µM was less than 20% and the inhibition at 30 µM is less than 20%. The molecule also had an inhibition at 100 µM of 78.3%.

`COc1ccc(Cl)c(N2CCN(C(=O)Cc3c(C(=O)O)[nH]c4ccc(Cl)cc34)CC2)c1` [YPI-A4886, 5-Chloro-3-(2-(4-(2-chloro-5-methoxyphenyl)piperazin-1-yl)-2-oxoethyl)-1H-indole-2-carboxylic acid] showed an inhibition at 1 µM of less than 20%, an inhibition at 3 µM of less than 20%, an inhibition at 10 µM of 33.7% and an inhibition at 30 µM of 66.2%. Further, the inhibition at 100 µM came out at 79.9%.

In the case of `CC1(C)CN(c2ccc(Cl)cc2)CCN1C(=O)Cc1c(C(=O)O)[nH]c2ccc(Cl)cc12` [YPI-A4884, 5-Chloro-3-(2-(4-(4-chlorophenyl)-2,2-dimethylpiperazin-1-yl)-2-oxoethyl)-1H-indole-2-carboxylic acid], the inhibition at 1 µM was less than 20%, the inhibition at 3 µM was less than 20%, the inhibition at 10 µM is less than 20% and the inhibition at 30 µM was less than 20%.

These data come from patent US20240287042A1, “NOVEL COMPOUND HAVING INHIBITORY ACTIVITY AGAINST PENDRIN, AND PHARMACEUTICAL USES THEREOF” (UIF (University Industry Foundation), Yonsei University, priority 2021, published 2024).
